Results on 18 molecules are retold here after patent US20030039661A1, “Methods, compositions and kits for preserving antigenicity” (priority 2001, published 2003).

One may read the IC50 as the concentration at which inhibition is half-maximal. Broadly, the melting point is the temperature, or range, at which the solid turns liquid.

For one series, the system named is mammary epithelial cells. As to conditions: in the absence of extracellular matrix; cited from earlier work.
For series [1], the system named is granulocytes. Briefly: Respiratory burst in isolated neutrophils measured by chemiluminescence (opsonized zymosan). Format: cell-based. As to conditions: FIG. 7. As for the experimental part: Respiratory Burst in Isolated Neutrophils Measured by Chemiluminescence
Whole blood anticoagulated with Acid Citrate Dextrose (ACD) with a ratio of 1:5 ACD to blood was collected (150 ml).
Neutrophils were isolated as described above.
Opsonized zymosan was prepared by suspending 125 mg zymosan particles in 25 ml pooled human serum (5 mg/ml) and incubating them for 20 minutes at 37° C. Centrifuge the suspension and resuspend the particles in 7 ml of PBS (18 mg/ml) and stored on ice until use (vortex prior to pipetting).
50 ml of a 250 μM solution of Lucigenin (MW 510.5) was prepared by dissolving 6.4 mg of the solid in 50 ml of PBS-G (+Ca, Mg). 10 μl of PBS-G (+Ca, Mg) to the wells in a white 96 well plate.
50 μl of the 250 μM Lucigenin solution was added to the wells in a white 96 well plate.
Cell preparations were obtained from cell culture (concentration at time zero=5.0×10^6 cells/ml) with PBS-G (+Ca, Mg).
20 μl of the neutrophil suspension was suspended to the appropriate wells and the plate was incubated at 37° C. for three minutes. 10 μl of the opsonized zymosan was added to the wells.
The plate was read on the luminometer (Labsystems Luminoskan, Needham Heights, Mass.) for 14 min. at 37° C. in the kinetic mode and record results using the software DeltaSoft.
The ability to undergo the respiratory burst is another measure of granulocyte viability. The respiratory burst is a physiological response of granulocytes to foreign stimuli such as bacteria. In this example, the method for inducing the respiratory burst utilized opsonized bacterial zymosan. The respiratory burst was measured via chemiluminescence.

For series [2], the system named is granulocytes in whole blood. The series can be described thus: Whole blood assay: survival of granulocytes in whole blood by hypodiploid analysis. The format is cell-based. As for the experimental part:
The following protocol was followed:
200 μl blood sample/2.8 ml 1× lysis solution in a 15 ml polypropylene conical tube.
Add 20 μl/sample anti-CD32-FITC. Incubate 30 minutes on ice in the dark.
Add 3 ml/sample ice-cold 95% EtOH dropwise while vortexing gently.
Resuspend each sample in 50 μl 5 mg/ml RN'ase. Transfer sample to 900 μl/sample.
50 μg/ml Propidium Iodide in 12×75 mm Falcon polystyrene tubes.
Analyze samples by flow cytometry (argon laser) for forward and side scatter and fluorescence.
Survival of granulocytes in whole blood was measured by hypodiploid analysis in a similar fashion to isolated granulocytes via flow cytometry. ICE/ced-3 inhibitors of the present invention maintained survival of granulocytes in whole blood for 96 hours at room temperature as indicated in the table below: […]

Series [3] has as its system granulocytes. The series can be described thus: Granulocyte survival, hypodiploid nuclei by propidium iodide flow cytometry (isolated granulocytes in culture). Format: cell-based. Particulars: FIG. 6; for IC50: isolated granulocytes cultured at 37° C., read-out: IC50 for granulocyte survival (hypodiploid DNA). As for the experimental part:
Neutrophil Culture Conditions:
The culture media was as follows: (RPMI 1640; 10% FBS; 10 mM Hepes; 0.2 mM L-glutamine; 25 U/ml penicillin; and […] streptomycin).
Purified neutrophil maintenance was performed under the following conditions: (5×10^6 cells/ml in above culture media; Polystyrene round-bottom 96-well plates; 250 μl/well; and 37° C., 5% CO2/95% air humidified incubator) (Liles et al., Blood 119 (1995) 3181-3188).
Analysis of Hypodiploid Nuclei by Flow Cytometry:
(50 μg/ml propidium iodide (Sigma catalog#P4170); 0.1% Triton X-100; and 0.1 sodium citrate).
Neutrophils were pelleted at 4° C. and the supernate aspirated.
Neutrophils were resuspended in hypotonic fluorochrome solution at a density of 5×10^6 cells/ml. Propidium iodide fluorescence of individual nuclei was evaluated in FL2 and measured on a logarithmic scale while gating on physical parameters in forward and side scatter to exlude cell debris.
At least 10,000 events per sample were collected and the results were evaluated relative to a non-apoptotic neutrophil population. (Liles et al., Blood 119 (1995) 3181-3188).
The present invention provides methods to enhance the ex vivo survival of neutrophils/granulocytes. To establish the ability of compounds to preserve granulocytes in culture, compounds were tested in a number of in vitro assays. One common model to test for effects on granulocyte survival involves separating granulocytes from fresh whole blood, culturing the cells at 37° C. and testing cells for nuclear hypodiploidy at 24 hour intervals (as described in Example 110). The presence of hypodiploid DNA is a measure of apoptosis, and is assessed using a propidium iodide stain via flow cytometry. Compounds of the present invention were incubated with the granulocytes in culture, their effects on granulocyte survival measured, and an IC50 calculated.

For a further series, the system named is T-lymphocyte cell line. Particulars: cited from earlier work.
Another series has as its system motoneurons. Particulars: in vitro and in vivo; cited from earlier work.
The mark [4] stands for this setting: after granulocyte culture for 72 hours.
[5] abbreviates: granulocyte culture for 48 hours.

Peptide text beside a SMILES is read from it. * marks the point of attachment. Cbz = O=C(OCc1ccccc1)*; CH2F = FC*

As for `CC(C)(C)OC(=O)N[C@@H](CC(=O)OCc1ccccc1)C(=O)CCl` [Boc-D-(benzyl) chloromethylketone], the “cell death of mammary epithelial cells” value in the series on mammary epithelial cells is recorded as “prevented”.
For `Cc1c(C(=O)N[C@H](C(=O)NC(CC(=O)O)C(=O)CF)C(C)C)n(C)c2ccccc12` (some centres unmarked) [Example 43, N-[(1.3-dimethylindole-2-carbonyl)valinyl]-3-amino-4-oxo-5-fluoropentanoic Acid], the “maintenance of the respiratory burst” value is “partially maintained” with granulocytes [1] (setting [4]) and “substantially maintained” in the series with granulocytes [1] (setting [5]). Further, the results for the “Percentage of diploid granulocytes in whole blood” value in series [2] (96 hours at room temperature) and in series [2] (time zero) were 91% and 96%, respectively.
On to `Cc1c(C(=O)N[C@H](C(=O)NC(CC(=O)O)C(=O)COC(=O)c2c(Cl)cccc2Cl)C(C)C)n(C)c2ccccc12` (some centres unmarked) [Example 70, N-[N-(1,3-dimethyl-indole-2-carbonyl)-valinyl]-3-amino-5-(2,6-dichlorobenzoyl)oxy-4-oxo-pentanoic Acid], for which the IC50 in the series on granulocytes [3] was less than 5 µM. Moreover, the “maintenance of the respiratory burst” value is listed as “partially maintained” in the series on granulocytes [1] (setting [4]) and “substantially maintained” in the series with granulocytes [1] (setting [5]). The “Percentage of diploid granulocytes in whole blood” value in series [2] (96 hours at room temperature) came to 89%; in series [2] (time zero), 96%.
On to `O=C1C[C@H](NC(=O)[C@@H]2Cc3cccc4c3N2C(=O)[C@@H](NC(=O)OCc2ccccc2)CC4)C(O)O1` (some centres unmarked) [Example 78], for which the melting point was in the range of 101 to 104 °C.
Same read-out and setting: the result for `CC(=O)N[C@@H](CC(=O)O)C(=O)N[C@H]1CCc2cccc3c2N(C1=O)[C@H](C(=O)N[C@H]1CC(=O)OC1O)C3` (some centres unmarked) [Example 82] reads 160 to 175 °C (dec.); that for `O=C(O)CCC(=O)N[C@H]1CCc2cccc3c2N(C1=O)[C@H](C(=O)N[C@H]1CC(=O)OC1O)C3` (some centres unmarked) [Example 85], 145 to 160 °C (dec.).
Same read-out and setting: with `O=C(O)C[C@H](NC(=O)OCc1ccccc1)C(=O)N[C@H]1CCc2cccc3c2N(C1=O)[C@H](C(=O)N[C@H]1CC(=O)OC1O)C3` (some centres unmarked) [Example 88] the figure was 140 to 144 °C (dec.); with `O=C(CCc1ccccc1)N[C@H]1CCc2cccc3c2N(C1=O)[C@H](C(=O)N[C@H]1CC(=O)OC1O)C3` (some centres unmarked) [Example 91], 78 to 81 °C.
Still for that read-out and setting: the result for `CC(=O)N[C@H]1CCc2cccc3c2N(C1=O)[C@H](C(=O)N[C@H]1CC(=O)OC1O)C3` (some centres unmarked) [Example 94] reads 210 to 215 °C (dec.).
`O=C1C[C@H](NC(=O)[C@@H]2Cc3cccc4c3N2C(=O)[C@@H](NC(=O)c2cccc3ccccc23)CC4)C(O)O1` (some centres unmarked) [Example 97]: the melting point is 202 to 203 °C (dec.).
On the same count and under the same terms, with `O=C1C[C@H](NC(=O)[C@@H]2Cc3cccc4c3N2C(=O)[C@@H](NC(=O)c2ccccc2)CC4)C(O)O1` (some centres unmarked) [Example 100] the figure was 204 to 205 °C (dec.); with `O=C1C[C@H](NC(=O)C2CCc3cccc4c3N2C(=O)[C@@H](NC(=O)OCc2ccccc2)CC4)C(O)O1` (some centres unmarked) [Example 103], 120 to 123 °C (dec.).
On to `O=C(O)CC(NC(=O)[C@@H]1Cc2cccc3c2N1C(=O)[C@@H](NC(=O)OCc1ccccc1)CC3)C(=O)CF` (some centres unmarked) [Example 106], for which the concentration for half-maximal inhibition (IC50) with granulocytes [3] is less than 5 µM.
With `O=C(O)C[C@H](NC(=O)[C@@H]1Cc2cccc3c2N1C(=O)[C@@H](NC(=O)OCc1ccccc1)CC3)C(=O)COP(=O)(c1ccccc1)c1ccccc1` [Example 109, 3-[(2S-cis)-[5-benzyloxycarbonylamino-1,2,3,4,5,6,7-hexahydro-4-oxoazepino[3,2,1-hi]indole-2-carbonyl]amino]-5-(diphenylphosphinyl)oxy-4-oxo-pentanoic Acid], the melting point was 109 to 111 °C (dec.).
On to `CC(=O)N[C@@H](CC(=O)O)C(=O)N[C@@H](CCC(=O)O)C(=O)N[C@H](C(=O)N[C@H](C=O)CC(=O)O)C(C)C` [acetyl-DEVD-aldehyde], for which, in the series on T-lymphocyte cell line, the anti-Fas induced apoptosis entry is given as “inhibited”.
Turning to `CC(=O)N[C@@H](Cc1ccc(O)cc1)C(=O)N[C@H](C(=O)N[C@@H](C)C(=O)N[C@@H](CC(=O)O)C(=O)CCl)C(C)C` [acetyl-YVAD-chloromethylketone], in the series on motoneurons, the death of motoneurons entry is reported as “blocked”.
Turning to `COC(=O)C[C@H](NC(=O)[C@H](C)NC(=O)[C@@H](NC(=O)OCc1ccccc1)C(C)C)C(=O)CF` [zVADfmk, reference compound] (Cbz-Val-Ala-Asp(OMe)-CH2F), the “effect on improving granulocyte survival” value in the series on granulocytes [3] (at 48 hours) was “weak effect”. In the series with granulocytes [1] (time not stated), the “maintenance of the respiratory burst” value was “did not maintain”.
Regarding acetyl-AD-aldehyde, the death of motoneurons result with motoneurons is on record as “blocked”.
